{
  "source": "patent US20260007727A1",
  "about": "“DRUG THAT PROMOTES HEMOSTASIS” (BIOMEDIZINISCHE FORSCHUNG & BIO-PRODUKTE GMBH, priority 2022, published 2026)",
  "test_system": "rivaroxaban rabbit model",
  "assay": "reversal of anticoagulation in a rivaroxaban rabbit model (claw cut)",
  "assay_type": "in vivo, New Zealand White rabbits",
  "procedure": "In doing so, anesthetized New Zealand White rabbits were treated with the factor Xa inhibitor rivaroxaban to achieve anticoagulation. The increased tendency to bleed associated with anticoagulation was determined by cutting the claws. Upon intravenous administration of prethrombin-1, the blood loss was measured again after the claws had been cut.",
  "note": "Several values for one entry are separate records, joined by “and”; a condition that tells them apart may be missing. Equal entries are not always repeated.",
  "data": [
    {"smiles": "O=C(NC[C@H]1CN(c2ccc(N3CCOCC3=O)cc2)C(=O)O1)c1ccc(Cl)s1", "note": "[rivaroxaban]", "values": [
      {"measurement": "Blood loss after rivaroxaban", "setting": "rivaroxaban 7 μg/kg body weight", "result": 22.3, "unit": "mg"},
      {"measurement": "Blood loss after rivaroxaban", "setting": "rivaroxaban 14 μg/kg body weight", "result": 11.3, "unit": "mg"},
      {"measurement": "Blood loss after rivaroxaban", "setting": "rivaroxaban 35 μg/kg body weight", "result": 30.4, "unit": "mg"},
      {"measurement": "Blood loss after rivaroxaban", "setting": "rivaroxaban 70 μg/kg body weight, individual rabbits", "result": "165.0 mg and 98.7 mg and 20.8 mg and 51.8 mg and 77.4 mg and 108.5 mg and 51.2 mg"}
    ]}
  ]
}
